Data from publication PMC7059627 (FASEB bioAdvances, 2020).

What was measured:
mitochondrial complex I [1] = molecular target: T1, mitochondrial complex I (Bos taurus, UniProt P03887+P17694+P42026); experiment: NADH:decylubiquinone/DCPIP complex I kinetics in freeze-thawed mitochondria; assay type: biochemical
mitochondrial complex I [2] = molecular target: T1, mitochondrial complex I; experiment: Michaelis-Menten kinetics with DCPIP reduction, NADH as electron donor; assay type: cell-based

T1 sequence (P42026 38-216): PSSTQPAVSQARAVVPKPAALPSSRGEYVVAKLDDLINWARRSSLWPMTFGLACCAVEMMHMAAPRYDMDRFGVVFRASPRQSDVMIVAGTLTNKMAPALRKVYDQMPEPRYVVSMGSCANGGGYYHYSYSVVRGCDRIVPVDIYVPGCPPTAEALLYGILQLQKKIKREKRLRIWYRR
T1 sequence (P03887 whole entry): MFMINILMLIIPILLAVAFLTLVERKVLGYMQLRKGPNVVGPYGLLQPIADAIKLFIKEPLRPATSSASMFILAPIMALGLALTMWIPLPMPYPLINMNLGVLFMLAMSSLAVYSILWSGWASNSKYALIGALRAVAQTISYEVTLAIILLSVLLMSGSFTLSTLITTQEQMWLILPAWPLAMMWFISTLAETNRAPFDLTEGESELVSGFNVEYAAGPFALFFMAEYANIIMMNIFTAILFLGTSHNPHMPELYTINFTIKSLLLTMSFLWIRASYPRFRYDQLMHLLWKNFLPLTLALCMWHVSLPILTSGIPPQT
T1 sequence (P17694 34-463): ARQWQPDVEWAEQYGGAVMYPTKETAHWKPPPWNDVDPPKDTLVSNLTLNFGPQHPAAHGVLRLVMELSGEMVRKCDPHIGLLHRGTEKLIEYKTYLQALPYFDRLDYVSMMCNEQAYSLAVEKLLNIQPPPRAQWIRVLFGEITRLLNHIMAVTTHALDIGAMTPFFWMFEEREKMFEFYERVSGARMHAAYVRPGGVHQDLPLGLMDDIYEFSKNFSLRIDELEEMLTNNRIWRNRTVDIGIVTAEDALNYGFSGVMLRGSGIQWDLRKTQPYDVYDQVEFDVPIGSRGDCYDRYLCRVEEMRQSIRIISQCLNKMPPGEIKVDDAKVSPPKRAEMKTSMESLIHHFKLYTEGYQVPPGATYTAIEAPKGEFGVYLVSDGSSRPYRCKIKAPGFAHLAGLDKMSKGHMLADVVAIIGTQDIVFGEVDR

Row | Compound | Ki (mitochondrial complex I [1]) [nM] | Michaelis-Menten kinetics with DCPIP reduction, NADH as electron donor (mitochondrial complex I [2])
1 | CCCCCCCc1[nH]c2ccccc2c(=O)c1O [PQS, 2‐heptyl‐3‐hydroxy‐4(1H)‐quinolone] | 560 | 
2 | CCCCCCCCCCC1=C(C)C(=O)C(OC)=C(OC)C1=O [decylubiquinone] |  | Kinetics with the substrate analog decylubiquinone at different PQS concentrations were measured
